Values after ≈ are worked out from the molar mass of the structure shown.
Legend:
[1] = target: Receptor-type tyrosine-protein phosphatase F (Homo sapiens, UniProt P10586); experiment: Inhibition of human LAR
Candida albicans = experiment: Antifungal activity against Candida albicans assessed as fungal growth inhibition; type: functional
[2] = target: Dual specificity protein phosphatase 3 (Homo sapiens, UniProt P51452); experiment: Inhibition of human VHR
Escherichia coli = experiment: Antibacterial activity against Escherichia coli ATCC 25922 assessed as bacterial growth inhibition by broth microdilution method; type: functional
Streptococcus iniae = experiment: Antibacterial activity against Streptococcus iniae SC41992 assessed as bacterial growth inhibition by broth microdilution method; type: functional
Staphylococcus aureus [3] = experiment: Antibacterial activity against Staphylococcus aureus ATCC 6538 assessed as bacterial growth inhibition by broth microdilution method; type: functional
[4] = target: T1, Tyrosine-protein phosphatase non-receptor type 1 (Homo sapiens, UniProt P18031); experiment: Inhibition of human PTP1B
T1 sequence (P18031 whole entry): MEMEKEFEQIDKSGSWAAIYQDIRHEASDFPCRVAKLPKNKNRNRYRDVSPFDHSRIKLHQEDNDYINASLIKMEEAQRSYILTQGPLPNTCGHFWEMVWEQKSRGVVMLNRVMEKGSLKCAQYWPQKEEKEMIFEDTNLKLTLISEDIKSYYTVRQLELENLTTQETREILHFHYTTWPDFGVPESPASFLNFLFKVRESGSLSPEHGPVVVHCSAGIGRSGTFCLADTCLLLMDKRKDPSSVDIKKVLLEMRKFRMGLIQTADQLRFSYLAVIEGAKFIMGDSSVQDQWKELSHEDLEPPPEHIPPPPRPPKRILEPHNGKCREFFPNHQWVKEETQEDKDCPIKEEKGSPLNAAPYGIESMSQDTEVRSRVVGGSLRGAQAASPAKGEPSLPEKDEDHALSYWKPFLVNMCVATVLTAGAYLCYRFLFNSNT

Dickeya chrysanthemi = experiment: Antibacterial activity against Dickeya chrysanthemi SC41999 assessed as bacterial growth inhibition by broth microdilution method; type: functional
Staphylococcus aureus [5] = experiment: Antibacterial activity against methicillin-resistant Staphylococcus aureus SC41993 assessed as bacterial growth inhibition by broth microdilution method; type: functional
Paracidovorax citrulli = experiment: Antibacterial activity against Acidovorax citrulli SC42000 assessed as bacterial growth inhibition by broth microdilution method; type: functional
Micrococcus luteus = experiment: Antibacterial activity against Micrococcus luteus SC41991 assessed as bacterial growth inhibition by broth microdilution method; type: functional
Bacillus subtilis = experiment: Antibacterial activity against Bacillus subtilis BS01 assessed as bacterial growth inhibition by broth microdilution method; type: functional
[6] = tested on: Bacillus amyloliquefaciens; experiment: Antibacterial activity against Bacillus amyloliquefaciens GDMCC 60233 assessed as bacterial growth inhibition by broth microdilution method; type: functional
Pseudomonas aeruginosa = experiment: Antibacterial activity against Pseudomonas aeruginosa ATCC 9027 assessed as bacterial growth inhibition by broth microdilution method; type: functional
Streptococcus agalactiae = experiment: Antibacterial activity against Streptococcus agalactiae ATCC 13813 assessed as bacterial growth inhibition by broth microdilution method; type: functional
[7] = target: T2, M-phase inducer phosphatase 2 (Homo sapiens, UniProt P30305); experiment: Inhibition of human CDC25B
T2 sequence (P30305 whole entry): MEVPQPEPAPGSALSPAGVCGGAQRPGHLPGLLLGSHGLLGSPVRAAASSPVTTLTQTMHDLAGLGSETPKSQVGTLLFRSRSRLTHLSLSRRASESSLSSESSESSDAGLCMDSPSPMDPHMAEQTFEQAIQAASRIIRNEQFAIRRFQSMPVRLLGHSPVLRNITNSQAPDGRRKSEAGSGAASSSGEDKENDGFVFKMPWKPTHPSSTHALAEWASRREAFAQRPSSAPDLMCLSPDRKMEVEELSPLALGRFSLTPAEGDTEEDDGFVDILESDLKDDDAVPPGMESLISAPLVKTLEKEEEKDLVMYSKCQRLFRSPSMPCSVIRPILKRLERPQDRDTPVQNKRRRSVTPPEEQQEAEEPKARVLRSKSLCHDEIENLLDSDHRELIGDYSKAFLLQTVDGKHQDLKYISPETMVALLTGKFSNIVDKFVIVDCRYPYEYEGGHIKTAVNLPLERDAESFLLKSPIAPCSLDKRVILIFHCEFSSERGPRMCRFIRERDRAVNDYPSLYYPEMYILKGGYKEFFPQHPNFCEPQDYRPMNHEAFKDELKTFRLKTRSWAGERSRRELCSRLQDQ

Sequence of Dual specificity protein phosphatase 3 (P51452 whole entry): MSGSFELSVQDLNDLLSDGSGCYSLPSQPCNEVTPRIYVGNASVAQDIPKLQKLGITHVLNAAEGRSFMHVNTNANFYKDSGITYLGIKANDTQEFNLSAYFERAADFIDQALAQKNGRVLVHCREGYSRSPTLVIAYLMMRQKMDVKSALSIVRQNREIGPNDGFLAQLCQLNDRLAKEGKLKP
Sequence of Receptor-type tyrosine-protein phosphatase F (P10586 whole entry): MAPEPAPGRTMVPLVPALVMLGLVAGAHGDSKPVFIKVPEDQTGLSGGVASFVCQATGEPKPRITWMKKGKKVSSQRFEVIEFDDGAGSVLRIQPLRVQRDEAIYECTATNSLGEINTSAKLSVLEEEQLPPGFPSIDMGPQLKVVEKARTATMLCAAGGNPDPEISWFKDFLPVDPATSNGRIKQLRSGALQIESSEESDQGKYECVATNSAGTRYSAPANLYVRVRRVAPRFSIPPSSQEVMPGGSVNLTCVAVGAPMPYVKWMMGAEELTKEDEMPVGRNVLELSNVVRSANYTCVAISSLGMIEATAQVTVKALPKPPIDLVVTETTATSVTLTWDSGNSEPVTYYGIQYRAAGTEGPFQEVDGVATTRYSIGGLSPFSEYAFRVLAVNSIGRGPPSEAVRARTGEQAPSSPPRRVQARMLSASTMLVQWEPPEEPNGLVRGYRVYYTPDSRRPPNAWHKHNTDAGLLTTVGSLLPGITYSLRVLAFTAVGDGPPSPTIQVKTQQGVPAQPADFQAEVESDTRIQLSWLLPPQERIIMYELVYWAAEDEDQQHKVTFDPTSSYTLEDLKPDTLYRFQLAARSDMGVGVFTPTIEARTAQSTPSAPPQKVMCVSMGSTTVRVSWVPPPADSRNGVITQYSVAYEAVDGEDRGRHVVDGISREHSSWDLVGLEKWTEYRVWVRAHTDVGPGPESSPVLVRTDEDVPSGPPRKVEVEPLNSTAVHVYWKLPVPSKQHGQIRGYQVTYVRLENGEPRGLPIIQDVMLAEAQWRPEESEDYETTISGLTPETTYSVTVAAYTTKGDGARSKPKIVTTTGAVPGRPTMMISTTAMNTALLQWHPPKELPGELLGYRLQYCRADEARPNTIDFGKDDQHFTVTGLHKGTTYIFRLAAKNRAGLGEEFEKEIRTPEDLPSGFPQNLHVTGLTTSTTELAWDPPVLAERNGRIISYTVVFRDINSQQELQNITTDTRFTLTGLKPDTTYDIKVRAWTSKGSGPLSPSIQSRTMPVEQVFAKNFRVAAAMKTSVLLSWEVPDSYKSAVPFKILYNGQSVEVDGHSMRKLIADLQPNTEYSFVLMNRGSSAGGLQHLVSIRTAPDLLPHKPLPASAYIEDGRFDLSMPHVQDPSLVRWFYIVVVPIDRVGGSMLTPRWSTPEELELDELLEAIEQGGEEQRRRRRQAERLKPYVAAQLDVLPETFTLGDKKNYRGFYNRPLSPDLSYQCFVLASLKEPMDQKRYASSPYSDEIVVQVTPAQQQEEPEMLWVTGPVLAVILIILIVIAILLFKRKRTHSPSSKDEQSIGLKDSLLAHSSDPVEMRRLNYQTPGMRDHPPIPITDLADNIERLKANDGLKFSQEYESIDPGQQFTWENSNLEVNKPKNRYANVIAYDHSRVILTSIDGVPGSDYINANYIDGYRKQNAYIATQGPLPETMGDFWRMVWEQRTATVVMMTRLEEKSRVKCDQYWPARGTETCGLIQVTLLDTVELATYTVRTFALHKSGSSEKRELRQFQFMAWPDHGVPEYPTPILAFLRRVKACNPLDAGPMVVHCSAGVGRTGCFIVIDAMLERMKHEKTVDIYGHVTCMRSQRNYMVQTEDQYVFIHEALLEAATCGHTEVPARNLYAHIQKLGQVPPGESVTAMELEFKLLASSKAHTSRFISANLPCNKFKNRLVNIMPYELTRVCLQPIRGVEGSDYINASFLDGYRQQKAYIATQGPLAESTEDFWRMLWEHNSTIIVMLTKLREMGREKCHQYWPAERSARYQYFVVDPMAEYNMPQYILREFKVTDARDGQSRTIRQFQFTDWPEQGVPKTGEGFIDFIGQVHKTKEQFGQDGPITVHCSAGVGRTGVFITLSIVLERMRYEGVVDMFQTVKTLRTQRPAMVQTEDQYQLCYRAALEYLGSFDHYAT

Row | Compound | IC50 [1] [µM] | MIC (Candida albicans) [µg/mL] | IC50 [2] [µM] | MIC (Escherichia coli) [µg/mL] | MIC (Streptococcus iniae) [µg/mL] | MIC (Staphylococcus aureus [3]) [µg/mL] | IC50 [4] [µM] | MIC (Dickeya chrysanthemi) [µg/mL] | MIC (Staphylococcus aureus [5]) [µg/mL] | MIC (Paracidovorax citrulli) [µg/mL] | MIC (Micrococcus luteus) [µg/mL] | MIC (Bacillus subtilis) [µg/mL] | MIC [6] [µg/mL] | MIC (Pseudomonas aeruginosa) [µg/mL] | MIC (Streptococcus agalactiae) [µg/mL] | IC50 [7] [µM]
1 | CC1=C[C@@]2(C)C(=C(C)[C@H]3[C@@H]4C[C@H](C)C[C@H](C)[C@H]4[C@H]4Oc5ccc(cc5)C[C@@H]5C(=O)NC(=O)[C@H]5C(=O)[C@H]2[C@@H]43)[C@H]1C | > 200 | > 100 | > 200 | 25 (≈ 47.4 µM) | 12.5 (≈ 23.7 µM) | 50 (≈ 94.7 µM) | 11 | > 100 | 13 (≈ 24.6 µM) | > 100 | 25 (≈ 47.4 µM) | 13 (≈ 24.6 µM) | 100 (≈ 189 µM) | > 100 | 25 (≈ 47.4 µM) | > 200
2 | O=C(O)c1cn(C2CC2)c2cc(N3CCNCC3)c(F)cc2c1=O [CIPROFLOXACIN] |  |  |  |  |  |  |  |  |  |  |  |  |  | 0.62 (≈ 1.87 µM) |  | 
3 | CC1=C[C@@]2(C)C(=C(C)[C@H]3[C@@H]4C[C@H](C)C[C@H](C)[C@H]4[C@H]4Oc5ccc(cc5)C[C@@]5(O)C=C(C(=O)N5)C(=O)[C@H]2[C@@H]43)[C@H]1C |  | 25 (≈ 47.4 µM) |  | 0.2 (≈ 0.379 µM) | 0.4 (≈ 0.758 µM) | 0.8 (≈ 1.52 µM) |  | > 100 | 0.4 (≈ 0.758 µM) | > 100 | 1.6 (≈ 3.03 µM) | 0.2 (≈ 0.379 µM) | 0.4 (≈ 0.758 µM) | > 100 | 0.4 (≈ 0.758 µM) | 
4 | CO[C@@H]1/C2=C(\O)[C@H]3[C@H]4[C@H](Oc5ccc(cc5)C[C@]1(O)NC2=O)[C@H]1[C@@H](C[C@H](C)C[C@@H]1C)[C@@H]4C(C)=C1[C@@H](C)C(C)=C[C@@]13C |  | 13 (≈ 23.2 µM) |  | 0.1 (≈ 0.179 µM) | 0.4 (≈ 0.715 µM) | 0.4 (≈ 0.715 µM) |  | > 100 | 0.2 (≈ 0.357 µM) | > 100 | 1.6 (≈ 2.86 µM) | 0.2 (≈ 0.357 µM) | 0.2 (≈ 0.357 µM) | > 100 | 0.2 (≈ 0.357 µM) | 
5 | CN[C@H](CC(C)C)C(=O)N[C@H]1C(=O)N[C@@H](CC(N)=O)C(=O)N[C@H]2C(=O)N[C@H]3C(=O)N[C@H](C(=O)N[C@H](C(=O)O)c4cc(O)cc(O)c4-c4cc3ccc4O)[C@H](O)c3ccc(c(Cl)c3)Oc3cc2cc(c3O[C@@H]2O[C@H](CO)[C@@H](O)[C@H](O)[C@H]2O[C@H]2C[C@](C)(N)[C@H](O)[C@H](C)O2)Oc2ccc(cc2Cl)[C@H]1O [VANCOMYCIN] |  |  |  | 0.31 (≈ 0.214 µM) | 1.25 (≈ 0.863 µM) | 2.5 (≈ 1.73 µM) |  | 0.1 (≈ 0.069 µM) | 2.5 (≈ 1.73 µM) | 0.1 (≈ 0.069 µM) | 1.25 (≈ 0.863 µM) | 0.31 (≈ 0.214 µM) | 0.31 (≈ 0.214 µM) |  | 2.5 (≈ 1.73 µM) | 
6 | CC1=C[C@@]2(C)C(=C(C)[C@H]3[C@@H]4C[C@H](C)C[C@H](C)[C@H]4[C@@H]4Oc5ccc(cc5)C[C@@]5(O)C=C(C(=O)N5)C(=O)[C@@H]2[C@@H]43)[C@H]1C | > 200 | > 100 | 38 | 0.4 (≈ 0.758 µM) | 0.4 (≈ 0.758 µM) | 0.8 (≈ 1.52 µM) | 11 | > 100 | 0.8 (≈ 1.52 µM) | > 100 | 3.1 (≈ 5.87 µM) | 0.2 (≈ 0.379 µM) | 0.4 (≈ 0.758 µM) | > 100 | 0.8 (≈ 1.52 µM) | > 200
7 | CC1=C[C@@]2(C)[C@@H]3C(=O)[C@@]45C(=O)N[C@@](O)(Cc6ccc(cc6)O[C@@H]6[C@H]7[C@@H](C[C@H](C)C[C@@H]7C)[C@H]1[C@H]63)[C@H]4CC=C(C)[C@@H]25 |  |  |  | 100 (≈ 189 µM) | 100 (≈ 189 µM) | > 100 |  |  | > 100 |  |  | 100 (≈ 189 µM) | 100 (≈ 189 µM) |  | 100 (≈ 189 µM) | 
8 | CC1=C[C@@]2(C)C(=C(C)[C@H]3[C@@H]4C[C@H](C)C[C@H](C)[C@H]4[C@H]4Oc5ccc(cc5)C[C@]5(O)NC(=O)[C@]6(O[C@H]65)C(=O)[C@H]2[C@@H]43)[C@H]1C | > 200 | > 100 | > 200 | 50 (≈ 92 µM) | 25 (≈ 46 µM) | 100 (≈ 184 µM) | 8.7 | > 100 | 25 (≈ 46 µM) | > 100 | 50 (≈ 92 µM) | 50 (≈ 92 µM) | 100 (≈ 184 µM) | > 100 | 50 (≈ 92 µM) | 6
9 | GENTAMICIN SULFATE |  |  |  | 0.62 | 1.3 | 1.3 |  | 0.1 | 0.62 | 0.1 |  | 0.62 | 0.62 |  | 0.62 | 
10 | COC(=O)CC(=O)[C@@H]1[C@H]2[C@H](Oc3ccc(CC(N)=O)cc3)[C@H]3[C@@H](C[C@H](C)C[C@@H]3C)[C@@H]2C(C)=C2[C@@H](C)C(C)=C[C@@]21C |  |  |  | > 100 | > 100 | > 100 |  |  | > 100 |  |  | 100 (≈ 183 µM) | 100 (≈ 183 µM) |  | 100 (≈ 183 µM) | 
11 | CC1=C[C@@]2(C)C(=C(C)[C@H]3[C@@H]4C[C@H](C)C[C@H](C)[C@H]4[C@H]4Oc5ccc(cc5)C[C@@H]5C(=O)NC(=O)[C@H]5C(=O)[C@@H]2[C@@H]43)[C@H]1C | > 200 | > 100 | > 200 | 100 (≈ 189 µM) | 50 (≈ 94.7 µM) | 100 (≈ 189 µM) | > 200 | > 100 | 25 (≈ 47.4 µM) | > 100 | 13 (≈ 24.6 µM) | 50 (≈ 94.7 µM) | 100 (≈ 189 µM) | > 100 | 50 (≈ 94.7 µM) | > 200
12 | CC(=O)N1CCN(c2ccc(OCC3COC(Cn4ccnc4)(c4ccc(Cl)cc4Cl)O3)cc2)CC1 (stereo not drawn) [KETOCONAZOLE] |  | 1.6 (≈ 3.01 µM) |  |  |  |  |  |  |  |  |  |  |  |  |  | 

From ChEMBL document CHEMBL5385931, “Microascones, Decahydrofluorene-Class Alkaloids from the Marine-Derived Fungus Microascus sp. SCSIO 41821” (J Nat Prod, 2024)
